The record followed here is patent publication US8318716B2, “Carbapenem derivatives” (KBP Biosciences Co., Ltd., priority 2009, dated 2012).

Common to all, as to format: cell-based
For experiment [1], the system named is methicillin-sensitive Staphylococcus aureus (MSSA). As to the kind of experiment: In vitro antibacterial activity, agar dilution method, MSSA. The settings on record: clinically isolated strains. The source says: (§1) Bacterial strains for test: All the bacterial strains are clinically isolated strains obtained from public sources. (1) Gram-positive bacteria: methicillin-sensitive Staphylococcus aureus (MSSA), methicillin-resistant Staphylococcus aureus (MRSA), methicillin-resistant Staphylococcus epidermidis (MRSE), methicillin-sensitive Staphylococcus epidermidis (MSSE), penicillin-sensitive Streptococcus pneumoniae (PSSP), and penicillin-resistant Streptococcus pneumoniae (PRSP); (2) Gram-negative bacteria: Escherichia coli (products from ESBLs), Klebsiella pneumonia, and Pseudomonas aeruginosa.
(§2) Drugs to be tested: Compounds 1 to 5, prepared as described above; Control drugs:
(§3) Meropenem (Meropenem for injection), Imipenem (Imipenem for injection), commercially available.
(§4) Experimental Method: the agar dilution method, by reference to Methodology of Pharmacological Experiment (X U Shuyun et al, published by the Peoples Medical Publishing House, 1st Edition, August, 1982; 3rd Edition, 5th printing, January 2002, p 1659-1660).

The test system of experiment [2] is methicillin-resistant Staphylococcus aureus (MRSA). Kind of experiment: In vitro antibacterial activity, agar dilution method, MRSA. As to conditions: clinically isolated strains.
Text: as §1, §2, §3, §4
In general terms: In agar dilution, organisms are placed on agar that contains the substance at set levels.

The subject of experiment [3] is methicillin-sensitive Staphylococcus epidermidis (MSSE). Kind of experiment: In vitro antibacterial activity, agar dilution method, MSSE.
Text: as §1, §2, §3, §4

Experiment [4] deals with methicillin-resistant Staphylococcus epidermidis (MRSE). As to the kind of experiment: In vitro antibacterial activity, agar dilution method, MRSE. The settings on record: clinically isolated strains.
Text: as §1, §2, §3, §4

Experiment [5] has as its system penicillin-sensitive Streptococcus pneumoniae (PSSP). As to the kind of experiment: In vitro antibacterial activity, agar dilution method, PSSP. The settings on record: clinically isolated strains.
Text: as §1, §2, §3, §4

In experiment [6] the test system is penicillin-resistant Streptococcus pneumoniae (PRSP). Kind of experiment: In vitro antibacterial activity, agar dilution method, PRSP. As to conditions: clinically isolated strains.
Text: as §1, §2, §3, §4

The test system of a further experiment is Klebsiella pneumonia. As to the kind of experiment: In vitro antibacterial activity, agar dilution method, klebsiella pneumonia. As to conditions: Klebsiella pneumoniae, clinically isolated strains.
Text: as §1, §2, §3, §4

For the next experiment, the system named is proteus mirabilis. As to the kind of experiment: In vitro antibacterial activity, agar dilution method, proteus mirabilis. The settings on record: clinically isolated strains.
Experiment [7] deals with Escherichia coli (products from ESBLs). As to the kind of experiment: In vitro antibacterial activity, agar dilution method, ESBLs. As to conditions: clinically isolated strains.
Text: as §1, §2, §3, §4

A further experiment has as its system Pseudomonas aeruginosa. Kind of experiment: In vitro antibacterial activity, agar dilution method, pseudomonas aeruginosa. As to conditions: clinically isolated strains.
Text: as §1, §2, §3, §4

Where [8] appears, read: MSSE, clinically isolated strains, agar dilution, read-out: MIC90.

SMILES strings stand for the structures. Converted amounts (≈) assume the structure as drawn. Like-named read-outs stand apart in the source and are kept apart here.

`COc1ccc(CNC(=O)[C@@H]2C[C@H](SC3=C(C(=O)O)N4C(=O)[C@H]([C@@H](C)O)[C@H]4[C@H]3C)CN2)cc1` [Compound 1, (4R,5S,6S)-6-((R)-1-hydroxyethyl)-3-((3S,5S)-5-(4-methoxybenzylcarbamoyl)pyrrolidin-3-ylthio)-4-methyl-7-oxo-1-azabicyclo[3.2.0]hept-2-ene-2-carboxylic acid]: the MIC90 (as a rule, an inhibitory concentration at the 90% level, which refers to growth in some studies and to a panel of isolates in others) in [1] was 0.063 µg/mL (≈ 0.132 µM); in experiment [2], 16 µg/mL (≈ 33.6 µM); in [3] (setting [8]), 0.031 µg/mL (≈ 0.0652 µM); in experiment [4], 32 µg/mL (≈ 67.3 µM); in experiment [5], 0.016 µg/mL (≈ 0.0336 µM); in experiment [6] it was 0.25 µg/mL (≈ 0.526 µM). In addition, the MIC90 in the experiment on Klebsiella pneumonia came to 0.031 µg/mL (≈ 0.0652 µM); against proteus mirabilis, 0.125 µg/mL (≈ 0.263 µM); in [7], 0.031 µg/mL (≈ 0.0652 µM); in the experiment with Pseudomonas aeruginosa, 4 µg/mL (≈ 8.41 µM).

As for `C[C@@H](O)[C@H]1C(=O)N2C(C(=O)O)=C(S[C@@H]3CN[C@H](C(=O)NCc4ccc(S(N)(=O)=O)cc4)C3)[C@H](C)[C@H]12` [Compound 2], the MIC90 in experiment [2] was determined as 16 µg/mL (≈ 30.5 µM); in [3] (setting [8]) it was 0.063 µg/mL (≈ 0.12 µM); in experiment [4] it was 32 µg/mL (≈ 61 µM); in experiment [5], 0.016 µg/mL (≈ 0.0305 µM); in experiment [6], 0.125 µg/mL (≈ 0.238 µM); against Klebsiella pneumonia, 0.063 µg/mL (≈ 0.12 µM). The MIC90 with proteus mirabilis was 0.125 µg/mL (≈ 0.238 µM); in experiment [7], 0.063 µg/mL (≈ 0.12 µM); against Pseudomonas aeruginosa, 4 µg/mL (≈ 7.62 µM).

Turning to `C[C@@H](O)[C@H]1C(=O)N2C(C(=O)O)=C(S[C@@H]3CN[C@H](C(=O)NCc4cccc(CCC(=O)O)c4)C3)[C@H](C)[C@H]12` [Compound 3], the MIC90 worked out at 0.063 µg/mL (≈ 0.122 µM) in experiment [1]; 32 µg/mL (≈ 61.8 µM) in experiment [2]; 0.031 µg/mL (≈ 0.0599 µM) in experiment [3] (setting [8]); 32 µg/mL (≈ 61.8 µM) in experiment [4]; 0.031 µg/mL (≈ 0.0599 µM) in experiment [5]; 0.25 µg/mL (≈ 0.483 µM) in experiment [6]. Further, the MIC90 in the experiment with Klebsiella pneumonia is 0.031 µg/mL (≈ 0.0599 µM); with proteus mirabilis, 0.25 µg/mL (≈ 0.483 µM); in experiment [7], 0.031 µg/mL (≈ 0.0599 µM); against Pseudomonas aeruginosa, 2 µg/mL (≈ 3.86 µM).

For `C[C@@H](O)[C@H]1C(=O)N2C(C(=O)O)=C(S[C@@H]3CN[C@H](C(=O)NCc4ccc(OC(F)(F)F)cc4)C3)[C@H](C)[C@H]12` [Compound 4, (4R,5S,6S)-6-((R)-1-hydroxyethyl)-4-methyl-7-oxo-3-((3S,5S)-5-(4-(trifluoromethoxy)benzylcarbamoyl)pyrrolidin-3-ylthio)-1-azabicyclo[3.2.0]hept-2-ene-2-carboxylic acid], the MIC90 is 0.031 µg/mL (≈ 0.0585 µM) in experiment [1]; 16 µg/mL (≈ 30.2 µM) in experiment [2]; 0.031 µg/mL (≈ 0.0585 µM) in experiment [3] (setting [8]); 16 µg/mL (≈ 30.2 µM) in experiment [4]; 0.016 µg/mL (≈ 0.0302 µM) in experiment [5]; 0.125 µg/mL (≈ 0.236 µM) in [6]. Also, the MIC90 came out at 0.031 µg/mL (≈ 0.0585 µM) in the experiment with Klebsiella pneumonia, 0.125 µg/mL (≈ 0.236 µM) with proteus mirabilis, 0.016 µg/mL (≈ 0.0302 µM) in experiment [7] and 4 µg/mL (≈ 7.55 µM) in the experiment with Pseudomonas aeruginosa.

Consider `C[C@@H](O)[C@H]1C(=O)N2C(C(=O)O)=C(S[C@@H]3CN[C@H](C(=O)NCc4ccc(OC(F)F)cc4)C3)[C@H](C)[C@H]12` [Compound 5], for which the MIC90 came out at 0.063 µg/mL (≈ 0.123 µM) in [1]; 16 µg/mL (≈ 31.3 µM) in experiment [2]; 0.063 µg/mL (≈ 0.123 µM) in experiment [3] (setting [8]); 16 µg/mL (≈ 31.3 µM) in [4]; 0.016 µg/mL (≈ 0.0313 µM) in experiment [5]; 0.25 µg/mL (≈ 0.489 µM) in experiment [6]. In addition, the MIC90 worked out at 0.063 µg/mL (≈ 0.123 µM) with Klebsiella pneumonia, 0.125 µg/mL (≈ 0.244 µM) in the experiment with proteus mirabilis, 0.016 µg/mL (≈ 0.0313 µM) in [7] and 2 µg/mL (≈ 3.91 µM) with Pseudomonas aeruginosa.

Turning to `C[C@@H](O)[C@H]1C(=O)N2C(C(=O)O)=C(SCCN=CN)C[C@H]12` [Imipenem, reference compound], the MIC90 is 0.063 µg/mL (≈ 0.21 µM) in [1]; 32 µg/mL (≈ 107 µM) in experiment [2]; 0.031 µg/mL (≈ 0.104 µM) in experiment [3] (setting [8]); 64 µg/mL (≈ 214 µM) in experiment [4]; 0.016 µg/mL (≈ 0.0534 µM) in experiment [5]; 0.5 µg/mL (≈ 1.67 µM) in [6]. Besides, the MIC90 was determined as 0.5 µg/mL (≈ 1.67 µM) in the experiment with Klebsiella pneumonia, 8 µg/mL (≈ 26.7 µM) in the experiment on proteus mirabilis, 0.25 µg/mL (≈ 0.835 µM) in experiment [7] and 8 µg/mL (≈ 26.7 µM) in the experiment on Pseudomonas aeruginosa.

As to `C[C@@H](O)[C@H]1C(=O)N2C(C(=O)O)=C(S[C@@H]3CN[C@H](C(=O)N(C)C)C3)[C@H](C)[C@H]12` [Meropenem, reference compound], the MIC90 was found to be 0.25 µg/mL (≈ 0.652 µM) in experiment [1]; 64 µg/mL (≈ 167 µM) in experiment [2]; 0.125 µg/mL (≈ 0.326 µM) in experiment [3]; 64 µg/mL (≈ 167 µM) in experiment [4]; 0.031 µg/mL (≈ 0.0808 µM) in experiment [5]; 1 µg/mL (≈ 2.61 µM) in experiment [6]. The MIC90 against Klebsiella pneumonia is 0.063 µg/mL (≈ 0.164 µM); against proteus mirabilis, 0.25 µg/mL (≈ 0.652 µM); in [7], 0.031 µg/mL (≈ 0.0808 µM); with Pseudomonas aeruginosa it was 4 µg/mL (≈ 10.4 µM).
